Reference: US10709724B2, “Methods of treating mitochondrial dysfunction” (Ecole Polytechnique Federale de Lausanne (EPFL), priority 2011, dated 2020)

Key:
C57Bl/6J mice = test: NAD+ content in mouse tissues after one week of supplemented chow; type: in vivo; details: 400 mg/kg/day in chow
Experimental: Animal Experiments. […] In other animal experiments, 8 weeks-old male C57Bl/6J mice were purchased from Charles River and powder chow (D12450B) and high fat (D12492) diets were from Research Diets Inc (New Brunswick, N.J., USA). 80 ml of water per kg of powder CD were used to make food pellets. 40 ml of water per kg of powder HFD were used to make food pellets. […] Mice were housed separately, had ad libitum access to water and food and were kept under a 12 h dark-light cycle. Mice were fed with homemade pellets from 10 weeks of age. […] All animal experiments were carried out according to local national and EU ethical guidelines. To monitor body weight, mice were weighed and the food consumption was measured each week on the same day. In case of PJ34 treatment, mice received each 12 h (at 7:00 and 19:00) 10 mg/kg PJ34 by intraperitoneal injection for 5 continuous days. In all studies animals were killed (at 14:00) either after CO2 inhalation or cervical dislocation after 6 h of fasting (starting at 8:00), and tissues were collected and processed as specified below. […] Plasma insulin and was determined in heparinized plasma samples using specific ELISA kits (Mercodia). Blood samples were collected in heparinized tubes and plasma was isolated after centrifugation. Plasma parameters were measured using a Cobas c111 (Roche Diagnostics). […] The respiratory quotient was the ratio of CO2 production over O2 consumption. During actimetry, beamline crossings were summarized each 15 minutes.
NAD^+ NAM Determination. NAD^+ levels in cultured cells were determined using a commercial kit (Enzychrom™, BioAssays Systems, CA). […] 70 L of ice-cold 7% perchloric acid was then added and the sample was vortexed and sonicated three times, then centrifuged. Clear supernatant was removed and neutralized by additions of 3 M NaOH and 1 M phosphate buffer (pH=9), then centrifuged. Clear supernatant was injected onto HPLC C-18 column with 20 mM ammonium acetate eluent to separate NAD^+ and NAM from other cellular components, NAD^+ and NAM peaks (260 nm absorbance) were collected. Collections were lyophilized to dryness and subjected to MALDI-TOF analysis. […] Corrections were applied for isotopic abundance.

HEK293T cells = test: Nampt, PARP activity, glycolysis and ATP in NR-treated HEK293T cells; type: cell-based, human
Experimental: mRNA and mtDNA Analysis. Total RNA was prepared using TRIzol (Invitrogen) according to the manufacturer's instructions. RNA was treated with DNase, and 2 μg of RNA was used for reverse transcription (RT). cDNA was purified on QIAquick PCR cleanup columns (Qiagen, Valencia, Calif., USA). 50× diluted cDNA was used for RT-quantitative PCR (RT-VCR) VCR) reactions (Bai et al., 2007). The RT-qPCR reactions were performed using the Light-Cycler system (Roche Applied Science) and a qPCR Supermix (Qiagen) with the primers for mice summarized in Table 1 and 4, and with the primers for worms summarized on Table 7. mtDNA quantification was performed as described (Lagouge et al., 2006) with the primers indicated in Table 2 and 5.
Immunoprecipitation, SDS-PAGE, Western Blotting. […] Reactions were developed by enhanced chemiluminescence (Amersham, Little Chalfont, UK), PGC-1α, FOXO1 and Ndufa9 acetylation levels were analyzed by immunoprecipitation from cellular or nuclear lysates of tissues with anti-PGC-1α (Millipore), anti-FOXO1 (Cell Signaling, Danvers, Mass., USA) and anti-Ndufa9 (Abcam) antibody followed by Western blot using an acetyl-lysine antibody (Cell Signaling) that was normalized to total PGC-1a/FOXO1/Ndufa9 levels (Lagouge et al., 2006; Rodgers et al., 2005). […] All blots were quantified by densitometry using ImageJ software. […]

C. elegans = test: Confocal microscopy of mitochondria in body wall muscle (pmyo-3::mito::GFP reporter); details: in vivo
Experimental: Confocal Microscopy and Image Processing Worms were immobilized with 6 mM solution of tetramisole hydrochloride (Sigma, Buchs, Switzerland) in M9 and mounted on 6% agarose pads on glass slides. Images of worms were acquired using Zeiss LSM 700 Upright confocal microscope (Carl Zeiss AG, Oberkochen, Germany) under non-saturating exposure conditions. All the snapshots were taken from the same part of C. elegans: muscles from the upper part of the worm, excluding the regions of oesophagus and vulva. For each condition multiple worms were observed and imaged. Image processing was performed with the Fiji software. One of the critical issues during the imaging process was the position of the worm, as it influences the level of background. For the uniformity of the represented images, contrast and brightness were adjusted in order, to eliminate the undesirable background signal. Neither of these manipulations was affecting the mitochondrial shape. Tracing of the mitochondrial network contour was done by the use of Gaussian blur filter followed by the application of Laplacian operator.

## NC(=O)c1ccc[n+]([C@@H]2O[C@H](CO)[C@@H](O)[C@H]2O)c1 [NR, nicotinamide riboside]
C57Bl/6J mice
  NAD+ levels in liver: increased NAD^+ levels in liver
  mitochondrial NAD+ levels in mouse liver: mitochondrial NAD^+ levels were enhanced
C57Bl/6J mice; quadriceps
  muscle NAD+ content: significantly enhanced muscle NAD^+ content
HEK293T cells
  cellular glycolytic rates or ATP levels: not linked to changes in cellular glycolytic rates or ATP levels
HEK293T cells; 0.5 mM, 24 hrs
  Nampt mRNA or protein content: could not see any change
C. elegans
  mitochondrial content in body wall muscle: increase muscle mitochondrial content
  mitochondrial morphology in body wall muscle: affect mitochondrial morphology
